Assay results taken from US20250091911A1, “NANOFILTRATION SYSTEM AND METHOD INCLUDING PRETREATMENT WITH GREEN SORPTION MEDIA” (University of Central Florida Research Foundation, Inc., priority 2023, published 2025).

Experiments:
[1] = Fixed-bed column pretreatment of spiked C-23 canal water with ZIPGEM; conditions: for Removal via column C1: ZIPGEM column 1, 30 h; for Removal via column C2: ZIPGEM column 2, 30 h; for Removal via column C3 / average removal percentage by media: ZIPGEM; for Removal via column C3: 30 h; for average removal percentage by media: triplicate columns
Description: (§1) The water samples were collected from the same site of the C-23 canal during both the dry and wet seasons. However, only wet season water samples were used in the experiment. The water samples were analyzed for both long-chain (PFOA and PFOS) and short-chain (Perfluorobutanoic acid [PFBA] and Perfluorobutanesulfonic acid [PFBS]) PFAS following the modified EPA 537.1 method (Shoemaker & Tettenhorst, 2020). Through this method, an aliquot of a 250 mL water sample containing analytes and internal standards is extracted via solid phase extraction. The extracted analytes and internal standards are then eluted with methanol and ammonium hydroxide in methanol solvent. Then the eluted samples are dried with nitrogen and reconstituted to 1 mL volume with a buffer solution. The samples are then injected into a C18 liquid chromatography column, and the PFAS compounds are separated by a gradient of pure methanol and 20 mM ammonium acetate. Finally, the eluted compounds are detected, and their concentrations are measured via tandem mass spectrometry. The method detection limits (MDLs) for PFBA, PFBS, PFOA, and PFOS were 0.5 ng·L^−1, 2 ng·L^−1, 0.5 ng·L^−1, and 1 ng·L^−1, respectively. The concentration of calcium ion (Ca^2+) was analyzed at Eurofins Flowers's Chemical Laboratories (Altamonte Springs, Florida) following EPA method 6010D using inductively coupled plasma optical emission spectroscopy (MDL=0.096 mg·L^−1). Total organic carbon (TOC) and dissolved organic carbon (DOC) were measured using a TOC analyzer following EPA method 415.3.
Water samples collected from the C-23 canal were first fortified with PFOS and PFOA and then used as influents to the pretreatment column containing one of the two green sorption media. Note the water samples were not fortified with PFBA and PFBS. The green sorption media effluent served as the feedwater for the nanofiltration unit of the proposed water treatment system. The nanofiltration membrane unit without any green sorption media-based pretreatment served as the “control.” The integration of a green sorption media (CPS or ZIPGEM) with crossflow nanofiltration is herein referred to as a water treatment system, denoted as CPS-nanofiltration or ZIPGEM-nanofiltration. The CPS and ZIPGEM column influents and effluents and nanofiltration permeates were analyzed for both long-chain (PFOS and PFOA) and short-chain (PFBS and PFBA) PFAS. FIG. 3 presents the green sorption media-nanofiltration hybrid treatment scheme.
C-23 canal water was stored in a walk-in refrigerator at […] after collection. For the pretreatment experiment, a total of 60 L of water was used as influents to the CPS and ZIPGEM columns. Although the raw water was spiked with 70 ng·L^−1 of PFOA and PFOS each, the short-chain PFAS (PFBA, PFBS) were at their indigenous concentrations. A peristaltic pump was used to deliver the water to the columns at a constant flowrate of 14 ml·min^−1. Three columns (triplicate) with 3 ft length and 4-inch diameter containing 2,600 ml of media were set up for each media, and all samples were analyzed in triplicate (FIG. 4). The fixed-bed column experiments were run for more than 48 h, and effluents were taken at different time intervals to be used as feedwaters for the nanofiltration treatment that followed. […] At least 5 L of column effluent were collected to be used as the nanofiltration feed, and the stated effluent at 9 h for CPS was collected from 0 h until 9 h, whereas effluent at 30 h for ZIPGEM was collected from 9 h until 30 h. The collected effluents from the column study were stored in a refrigerator until they were used for the nanofiltration experiment. FIG. 4 illustrates the experimental setup for the pretreatment CPS and ZIPGEM process.
The average removal efficiencies of each media pretreatment were calculated based on PFAS concentrations in the influents and effluents of triplicate columns, as disclosed in TABLE 5. […]

[2] = Crossflow nanofiltration of CPS-pretreated water; conditions: for PFAS concentration, membrane permeates (MP): CPS-nanofiltration @ 9 h
Description: as §1
(§2) A commercially available nanofiltration membrane (membrane ID: XN45) was used for the crossflow nanofiltration experiment. The membranes were acquired as flat sheets and cut into coupons of required sizes (active surface area of 42 cm^2) to fit into a membrane cell (CF042).
(§3) A bench-scale crossflow filtration setup was used in these experimental methods. The experimental setup consisted of a feed tank, a centrifugal pump, three CF042 membrane cells connected to pressure gauges, check valves, and flowmeters. A recirculating chiller was used for regulating the temperature at 20° C. Three high-precision balances were used to measure the weight of the collected permeate and to calculate the flowrates. The scales were connected to a computer for data acquisition.
(§4) Before each experimental run, the membrane cells and tubing were cleaned by running DI water as feed without placing any membrane coupons inside the cells. Then the membrane coupons were mounted into the cells firmly and compacted at 100 psi for at least 4 h using DI water. After that, 5 L of the effluents from the pretreatment media (i.e., the C-23 water samples that were run through the CPS and ZIPGEM) were taken as feedwater for each nanofiltration filtration experiment. The experiments were run for 24 h before collecting permeates and feed samples for analysis. The experiments were conducted at a constant flowrate of 1.0 L·min^−1, with a corresponding cross flow velocity of 0.18 m·s^−1. The transmembrane pressure was initially set to 110 psi at the beginning of the permeate collection by regulating inlet and retentate valves. However, the pressure changed over time as feed concentration increased during the permeate collection. The experiment was run in total recirculation mode, whereby both the retentate and permeate were recycled, except the time of permeate collection.
(§5) The average removal efficiencies of each media pretreatment were calculated based on PFAS concentrations in the influents and effluents of triplicate columns, as disclosed in TABLE 5. […] The overall efficiency of the hybrid treatment was calculated by comparing the average concentrations of PFAS in the influents of the green sorption media pretreatment columns and the nanofiltration permeates, as disclosed in TABLE 6. […]

[3] = Crossflow nanofiltration of ZIPGEM-pretreated water; conditions: for PFAS concentration, membrane permeates (MP): ZIPGEM-nanofiltration @ 30 h
Description: as §1, §2, §3, §4, §5

[4] = feed = ZIPGEM column 1 effluent
[5] = feed = ZIPGEM column 2 effluent
[6] = feed = ZIPGEM column 3 effluent

Row | SMILES | Removal via column C1 [1] [%] | Removal via column C2 [1] [%] | Removal via column C3 [1] [%] | average removal percentage by media [1] | PFAS concentration, membrane permeates (MP) ([2]; Col 1) [ng/L] | PFAS concentration, membrane permeates (MP) ([2]; Col 2) [ng/L] | PFAS concentration, membrane permeates (MP) ([2]; Col 3) [ng/L] | nanofiltration membrane removal ([2]; feed = CPS column 1 effluent) [%] | nanofiltration membrane removal ([2]; feed = CPS column 2 effluent) [%] | nanofiltration membrane removal ([2]; feed = CPS column 3 effluent) [%] | PFAS concentration, membrane permeates (MP) ([3]; Col 1) [ng/L] | PFAS concentration, membrane permeates (MP) ([3]; Col 2) [ng/L] | PFAS concentration, membrane permeates (MP) ([3]; Col 3) [ng/L] | nanofiltration membrane removal [3, 4] [%] | nanofiltration membrane removal [3, 5] [%] | nanofiltration membrane removal [3, 6] [%]
1 | O=S(=O)(O)C(F)(F)C(F)(F)C(F)(F)C(F)(F)F [PFBS, Perfluorobutanesulfonic acid] | 6 | 5 | −1 | 3.3 | 3.27 | 3.40 | 2.67 | 26 | 15 | 35 | 4.67 | 4.23 | 5.10 | 23 | 32 | 36
2 | O=C(O)C(F)(F)C(F)(F)C(F)(F)F [PFBA, Perfluorobutanoic acid] | 5 | 5 | 8 | 6 | 3.20 | 4.17 | 3.60 | 47 | 28 | 33 | 4.43 | 4.77 | 4.70 | 37 | 32 | 36
3 | O=S(=O)(O)C(F)(F)C(F)(F)C(F)(F)C(F)(F)C(F)(F)C(F)(F)C(F)(F)C(F)(F)F [PFOS, Perfluorooctanesulfonic acid] | 100 | 100 | 100 | 100 | 2.0 | 1.90 | 0.74 | 100 | 100 | 100 | 1.70 | 0.79 | 1.05 | 100 | 100 | 100
4 | O=C(O)C(F)(F)C(F)(F)C(F)(F)C(F)(F)C(F)(F)C(F)(F)C(F)(F)F [PFOA, Perfluorooctanoic acid] | 19 | 19 | 4 | 14 | 2.27 | 5.83 | 2.43 | 40 | 58 | 78 | 21.67 | 14.00 | 23.67 | 66 | 78 | 68
